{
  "source": "paper PMC10035370",
  "about": "“Targeting Tumor Angiogenesis with the Selective VEGFR-3 Inhibitor EVT801 in Combination with Cancer Immunotherapy” (Cancer Research Communications, 2022)",
  "key": {"VEGFR-1": {"biological_target": "T1, VEGFR-1 (Homo sapiens, UniProt P17948)", "T1 construct": "expressed in transfected cells; host or cells: HEK293T", "T1 sequence (P17948 27-1338)": "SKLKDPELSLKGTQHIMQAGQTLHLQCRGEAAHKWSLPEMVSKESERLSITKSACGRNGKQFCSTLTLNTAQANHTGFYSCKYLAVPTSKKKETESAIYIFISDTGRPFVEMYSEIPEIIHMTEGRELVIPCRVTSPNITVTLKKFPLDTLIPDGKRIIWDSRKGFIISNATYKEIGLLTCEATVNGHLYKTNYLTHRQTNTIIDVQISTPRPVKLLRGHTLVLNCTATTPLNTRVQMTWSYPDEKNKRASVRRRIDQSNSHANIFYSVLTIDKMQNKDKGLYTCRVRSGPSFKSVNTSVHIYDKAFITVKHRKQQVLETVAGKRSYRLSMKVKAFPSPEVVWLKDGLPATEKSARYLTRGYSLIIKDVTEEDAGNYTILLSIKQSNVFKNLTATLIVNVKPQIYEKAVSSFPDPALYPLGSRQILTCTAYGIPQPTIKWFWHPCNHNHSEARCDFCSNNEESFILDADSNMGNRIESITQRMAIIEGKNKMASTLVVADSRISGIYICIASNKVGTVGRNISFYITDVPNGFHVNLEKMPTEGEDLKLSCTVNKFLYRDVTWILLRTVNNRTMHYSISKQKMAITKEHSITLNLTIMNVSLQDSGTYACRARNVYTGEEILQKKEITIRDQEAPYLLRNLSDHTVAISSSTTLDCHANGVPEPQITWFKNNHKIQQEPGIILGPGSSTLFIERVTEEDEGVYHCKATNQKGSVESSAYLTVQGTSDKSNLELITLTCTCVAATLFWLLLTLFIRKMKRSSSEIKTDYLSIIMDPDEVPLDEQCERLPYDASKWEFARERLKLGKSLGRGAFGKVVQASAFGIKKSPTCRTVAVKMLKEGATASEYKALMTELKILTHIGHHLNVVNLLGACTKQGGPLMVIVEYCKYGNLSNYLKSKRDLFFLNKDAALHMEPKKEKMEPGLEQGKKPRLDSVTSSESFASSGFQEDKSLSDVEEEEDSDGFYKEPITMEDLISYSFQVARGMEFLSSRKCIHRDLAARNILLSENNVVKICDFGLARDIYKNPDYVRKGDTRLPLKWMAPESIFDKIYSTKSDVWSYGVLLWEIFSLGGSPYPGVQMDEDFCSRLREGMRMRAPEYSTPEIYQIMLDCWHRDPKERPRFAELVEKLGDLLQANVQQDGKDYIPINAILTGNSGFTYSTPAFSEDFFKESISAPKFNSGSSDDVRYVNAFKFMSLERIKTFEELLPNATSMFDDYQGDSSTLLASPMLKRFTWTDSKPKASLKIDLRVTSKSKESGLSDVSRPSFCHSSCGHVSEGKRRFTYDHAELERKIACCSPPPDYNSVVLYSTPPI", "experiment": "Cellular autophosphorylation assay, HEK293 cells transiently expressing VEGFR-1", "format": "cell-based", "experimental": "(§1) Transfection of HEK293T cells and Ba/F3 cells with VEGFR-1-Flag, VEGFR-2-Flag or VEGFR-3-Flag expression constructs was performed using Fugene-6 (Roche) as per manufacturer’s protocol. Briefly, Fugene-6 was pre-incubated with Opti-Mem (Gibco) before adding DNA. After 24 h, media was replaced with serum-free culture media containing 0.2 % BSA. On the next day, cells were incubated for 1 h in 1 mM orthovanadate, harvested, dissociated and distributed at 4 x 10^5 cells in 5 mL for HEK-VEGFR-1 and HEK-VEGFR-3, and 5 x 10^4 cells per 5 mL for HEK VEGFR-2 in the presence of EVT801 or SAR401849. After 30 min, the reaction was stopped by the addition of cold PBS supplemented with 1 mM orthovanadate. Cells were then lysed with 150 μl of RIPA buffer for 15 min at 4°C, then centrifuged for 10 min at 10,000 g. Supernatants (75 μl) were distributed in duplicate on 96 well plates that were precoated with the anti-flag, and left for 1 h at room temperature. After 3 washes, the anti-phosphotyrosine conjugated to the HRP was added and incubated for 1 h at room temperature. Wells were then washed 3 times with TBS buffer containing 0.5 % Tween-20 and 2 mM MgCl2. The reaction was stopped with 50 μL of 2 N H2SO4, and the signal was read with Envision at the wavelengths of 485 nm and 530 nm."}, "NCI-H1703 cells": {"tested_on": "NCI-H1703 cells", "experiment": "NCI-H1703 viability (ATP reduction)", "format": "cell-based", "conditions": "Homo sapiens, in vitro", "experimental": "NCI-H1703 were seeded in 96-well plates coated with 0.3 % gelatin (5 x 10^3 cells per well) and were incubated in RPMI 0.1 % FCS with VEGF-C (300 ng/mL) or VEGF-D (300 ng/mL) in the absence or presence of increasing doses of EVT801. After 5 days, viable cells were quantified with the cell Titer-glo luminescent cell viability assay (Promega) as previously described (1)."}, "ERK phosphorylation": {"tested_on": "ERK phosphorylation", "experiment": "Immunoblot of phosphorylated ERK in NCI-H1703 cells", "format": "cell-based, human", "conditions": "1 μmol/L", "experimental": "For immunoblotting, 2 x 10^5 cells were scraped and lysed with RIPA lysis buffer (Sigma, R0278), supplemented with protease inhibitor cocktail (Ozyme, 5872S). After separation by SDS-PAGE, proteins were transferred to PVDF membranes. Membranes were blocked with 5 % milk in TBS-T for saturation step and incubated with phosphorylated ERK (CellSignaling, 4377, 1:1000) or GAPDH (CellSignaling, 5174, 1:1000) antibodies overnight, followed by an anti-mouse IgG, secondary antibody HRP linked (CellSignaling, 7076, 1:2000) in antibodies buffer (TBS-Tween 0.05 %, 0.1 % BSA) for 2 h. Membranes were washed 3 x 10 min in TBS before adding chemiluminescent substrate (Supersignal West Pico Plus, 54580, ThermoFisher) and imaged by the Pxi6 station (Ozyme)."}, "Pharmacokinetics in rats": {"experiment": "Pharmacokinetics in rats", "format": "in vivo", "conditions": "rat, plasma; Sprague-Dawley rats, 10 mg/kg; read-out: T1/2 in plasma (converted)", "experimental": "Plasma samples and tumor homogenates were mixed with the precipitant solution (acetonitrile containing internal standard). The supernatant (180 µL) was transferred in a 96-well plate and 5 µL were injected. EVT801 and its main metabolite were quantified by LC-MS/MS following standard conditions."}, "VEGFR-2 [1]": {"biological_target": "T2, VEGFR-2 (Homo sapiens, UniProt P35968)", "experiment": "Biochemical kinase assay (in vitro assay), VEGFR-2", "parameters": "expressed in transfected cells; host or cells: HEK293T", "conditions": "read-out: IC50 in biochemical assays, VEGFR-2", "experimental": "Sigma protein kinase assay kits were used. 125 μL per well of Poly-Glu-Tyr (PGT) solution (250 μg/mL of PGT in PBS without Ca^2+, Mg^2+ and sodium bicarbonate) was added in a 96-well plate and overnight incubation was performed at 37 °C. The day after, coating solution was removed and wells were washed with 300 μL of PBS-Tween-20 0.05 %. The washing buffer was removed and wells were dried for 2 h at 37 °C. 90 μL of the kinase buffer was supplemented with ATP (30 μM for VEGFR-1 and VEGFR-3, and 15 μM for VEGFR-2), and the compound (EVT801 or SAR401849 at the indicated concentration or 1 % DMSO for the vehicle control). The phosphorylation reaction was initiated by the addition of 20 μL of kinase buffer without ATP supplemented with 100 ng of the tyrosine kinase (or without tyrosine kinase as control). Plates were incubated with gentle agitation at room temperature for 30 min. After 3 washes with 300 μL of washing buffer, 100 μL of phosphotyrosine specific monoclonal antibody conjugated to HRP (1:30,000) was added onto the phosphorylated PGT. Plates were incubated for 30 min at room temperature under gentle agitation. Then, 3 washes with 300 μL of washing buffer were performed. […] After 7 min at room temperature, the reaction was stopped by addition of 100 μL of […], and absorbance was determined with an Endvision spectrophotometer at 492 nm."}, "VEGFR-3": {"biological_target": "VEGFR-3 (Homo sapiens, UniProt P35916)", "sequence (P35916 25-1363)": "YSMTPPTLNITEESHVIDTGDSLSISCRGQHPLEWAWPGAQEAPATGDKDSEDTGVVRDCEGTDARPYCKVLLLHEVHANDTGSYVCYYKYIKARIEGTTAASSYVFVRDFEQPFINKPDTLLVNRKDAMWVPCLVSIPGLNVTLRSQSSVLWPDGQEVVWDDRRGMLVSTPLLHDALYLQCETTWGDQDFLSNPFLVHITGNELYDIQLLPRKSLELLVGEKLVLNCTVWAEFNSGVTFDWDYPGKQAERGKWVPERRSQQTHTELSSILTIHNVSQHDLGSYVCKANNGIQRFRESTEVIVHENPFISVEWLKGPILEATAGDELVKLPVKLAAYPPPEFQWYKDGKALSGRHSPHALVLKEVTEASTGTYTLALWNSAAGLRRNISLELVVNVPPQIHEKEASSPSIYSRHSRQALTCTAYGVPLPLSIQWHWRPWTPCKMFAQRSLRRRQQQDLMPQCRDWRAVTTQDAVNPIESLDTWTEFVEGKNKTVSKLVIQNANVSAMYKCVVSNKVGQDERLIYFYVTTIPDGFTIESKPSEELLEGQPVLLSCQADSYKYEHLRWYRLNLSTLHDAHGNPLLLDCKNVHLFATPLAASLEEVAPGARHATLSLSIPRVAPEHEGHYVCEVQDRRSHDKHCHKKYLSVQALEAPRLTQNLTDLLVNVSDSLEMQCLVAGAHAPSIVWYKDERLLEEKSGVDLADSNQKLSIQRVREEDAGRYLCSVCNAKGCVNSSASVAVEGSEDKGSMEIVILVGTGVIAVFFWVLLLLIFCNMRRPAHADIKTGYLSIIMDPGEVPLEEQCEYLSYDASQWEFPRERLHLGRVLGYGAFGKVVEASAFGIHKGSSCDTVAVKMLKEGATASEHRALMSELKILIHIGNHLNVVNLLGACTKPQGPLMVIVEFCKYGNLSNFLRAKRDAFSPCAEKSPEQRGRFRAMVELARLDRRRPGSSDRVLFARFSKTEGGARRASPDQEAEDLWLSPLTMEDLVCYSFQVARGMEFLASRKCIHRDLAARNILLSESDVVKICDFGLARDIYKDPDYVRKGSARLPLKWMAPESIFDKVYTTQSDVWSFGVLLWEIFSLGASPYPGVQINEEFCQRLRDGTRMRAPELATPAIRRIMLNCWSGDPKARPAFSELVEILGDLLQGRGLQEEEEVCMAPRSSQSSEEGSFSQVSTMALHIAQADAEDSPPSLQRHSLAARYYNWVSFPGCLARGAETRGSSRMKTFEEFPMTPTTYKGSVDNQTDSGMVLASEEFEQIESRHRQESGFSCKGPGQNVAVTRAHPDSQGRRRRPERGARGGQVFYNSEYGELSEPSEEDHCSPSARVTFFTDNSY", "experiment": "Cellular autophosphorylation assay, HEK293 cells transiently expressing VEGFR-3", "format": "cell-based", "parameters": "expressed in transfected cells; host or cells: HEK293T", "conditions": "read-out: IC50 in cellular assays, VEGFR-3 autophosphorylation", "experimental": "as §1"}, "VEGFR-2 [2]": {"biological_target": "T2, VEGFR-2", "experiment": "Viability of Ba/F3 cells dependent on VEGFR-2", "format": "cell-based", "parameters": "fusion proteins consisting of constructs for IL-3 independent survival and either VEGFR-2 or VEGFR-3 kinase domains; expressed in transfected cells; host or cells: Ba/F3 (stably transduced)", "experimental": "Ba/F3 cells were transduced and selected to stably express fusion proteins consisting of constructs for IL-3 independent survival and either VEGFR-2 or VEGFR-3 kinase domains or without the kinase domain. Proliferation and survival of cell lines was dependent on expression of the transcript. Cells in logarithmic-phase growth were harvested and 5 x 10^3 cells were distributed into each well of a 384-well plate in 50 µL of medium. Then, 50 nL of EVT801, SAR401849 or their vehicle solvent were added to appropriate wells. After 48 h, viability was determined by addition of 10 µL CellTiterGlo reagent (Promega). Luminescence was determined as relative light units (RLU) in counts per second."}},
  "data": [
    {"smiles": "CCn1c(N)c(-c2ncc[nH]2)c(=O)c2ccc(C#C[C@@](C)(O)COC)nc21", "note": "[EVT801]", "values": [
      {"measurement": "maximum inhibition of VEGFR-1", "setting": "VEGFR-1; HEK293T cellular autophosphorylation assay", "value": "below 50%"},
      {"measurement": "IC50", "setting": "VEGFR-1; HEK293 cells, read-out: IC50 in cellular assays, VEGFR-1 autophosphorylation", "value": 2130, "unit": "nM"},
      {"measurement": "IC50", "setting": "NCI-H1703 cells", "value": 109, "unit": "nM"},
      {"measurement": "reduction of ERK phosphorylation induced by VEGF-C and VEGF-D", "setting": "ERK phosphorylation", "value": "better than pazopanib"},
      {"measurement": "half-life", "setting": "Pharmacokinetics in rats", "value": 144, "unit": "min"},
      {"measurement": "IC50", "setting": "VEGFR-2 [1]", "value": 130, "unit": "nM"},
      {"measurement": "IC50", "setting": "VEGFR-3", "value": 39, "unit": "nM"},
      {"measurement": "IC50", "setting": "VEGFR-2 [2]", "value": 248, "unit": "nM"}
    ]}
  ]
}
